Laboratory results taken from ChEMBL document CHEMBL5465560, “Selectivity Literature for EUbOPEN Chemogenomic Library” (2024).

Experiments:
[1] = test system: Proto-oncogene tyrosine-protein kinase receptor Ret (Homo sapiens), P07949 [M918T]; experiment: (§1) Selectivity interaction (KinomeScan (DiscoverX)) EUB0000229b RET; details: at 1 µM
[2] = test system: Proto-oncogene tyrosine-protein kinase receptor Ret (Homo sapiens), P07949 [V804L]; experiment: as §1; details: at 1 µM
[3] = test system: Proto-oncogene tyrosine-protein kinase receptor Ret (Homo sapiens), P07949 [V804M]; experiment: as §1; details: at 1 µM
Sequence of Proto-oncogene tyrosine-protein kinase receptor Ret (Homo sapiens), P07949 [V804M] (P07949 whole entry V804M): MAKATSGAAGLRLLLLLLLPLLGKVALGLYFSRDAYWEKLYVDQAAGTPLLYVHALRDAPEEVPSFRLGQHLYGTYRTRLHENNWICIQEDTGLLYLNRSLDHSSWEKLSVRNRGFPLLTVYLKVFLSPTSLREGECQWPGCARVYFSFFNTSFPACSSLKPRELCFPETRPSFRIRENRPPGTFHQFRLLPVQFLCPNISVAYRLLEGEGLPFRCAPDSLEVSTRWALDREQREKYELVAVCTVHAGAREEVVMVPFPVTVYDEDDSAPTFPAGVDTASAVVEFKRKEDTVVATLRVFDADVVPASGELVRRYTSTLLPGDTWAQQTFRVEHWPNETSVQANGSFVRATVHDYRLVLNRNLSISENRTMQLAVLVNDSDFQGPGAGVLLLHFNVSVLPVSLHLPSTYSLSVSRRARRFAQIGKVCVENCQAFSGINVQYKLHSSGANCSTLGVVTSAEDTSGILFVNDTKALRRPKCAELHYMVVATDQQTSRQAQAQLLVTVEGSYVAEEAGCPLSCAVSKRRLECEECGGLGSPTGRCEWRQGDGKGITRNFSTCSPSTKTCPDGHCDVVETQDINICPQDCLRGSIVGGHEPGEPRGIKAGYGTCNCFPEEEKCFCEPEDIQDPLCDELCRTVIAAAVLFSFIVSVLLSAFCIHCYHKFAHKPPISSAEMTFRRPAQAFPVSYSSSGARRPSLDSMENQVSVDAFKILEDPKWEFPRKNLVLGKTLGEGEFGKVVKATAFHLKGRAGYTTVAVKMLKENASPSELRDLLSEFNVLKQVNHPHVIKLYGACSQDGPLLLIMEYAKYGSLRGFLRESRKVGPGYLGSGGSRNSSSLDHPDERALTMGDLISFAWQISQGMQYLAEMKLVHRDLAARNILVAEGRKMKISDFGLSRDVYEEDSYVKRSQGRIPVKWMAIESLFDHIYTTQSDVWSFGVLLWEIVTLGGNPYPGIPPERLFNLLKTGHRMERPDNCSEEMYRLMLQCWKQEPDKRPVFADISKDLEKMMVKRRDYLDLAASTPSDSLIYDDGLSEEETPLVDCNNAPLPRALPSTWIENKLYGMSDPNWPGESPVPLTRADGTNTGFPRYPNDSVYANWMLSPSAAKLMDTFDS

[4] = target: Proto-oncogene tyrosine-protein kinase receptor Ret (Homo sapiens, UniProt P07949); experiment: as §1; details: at 10 µM
Sequence of Proto-oncogene tyrosine-protein kinase receptor Ret (P07949 whole entry): as the sequence (P07949 whole entry V804M) above, with M804V counted along it

[5] = target: Platelet-derived growth factor receptor alpha (Homo sapiens, UniProt P16234); experiment: Selectivity interaction (KinomeScan (DiscoverX)) EUB0000045b PDGFRA
Sequence of Platelet-derived growth factor receptor alpha (P16234 whole entry): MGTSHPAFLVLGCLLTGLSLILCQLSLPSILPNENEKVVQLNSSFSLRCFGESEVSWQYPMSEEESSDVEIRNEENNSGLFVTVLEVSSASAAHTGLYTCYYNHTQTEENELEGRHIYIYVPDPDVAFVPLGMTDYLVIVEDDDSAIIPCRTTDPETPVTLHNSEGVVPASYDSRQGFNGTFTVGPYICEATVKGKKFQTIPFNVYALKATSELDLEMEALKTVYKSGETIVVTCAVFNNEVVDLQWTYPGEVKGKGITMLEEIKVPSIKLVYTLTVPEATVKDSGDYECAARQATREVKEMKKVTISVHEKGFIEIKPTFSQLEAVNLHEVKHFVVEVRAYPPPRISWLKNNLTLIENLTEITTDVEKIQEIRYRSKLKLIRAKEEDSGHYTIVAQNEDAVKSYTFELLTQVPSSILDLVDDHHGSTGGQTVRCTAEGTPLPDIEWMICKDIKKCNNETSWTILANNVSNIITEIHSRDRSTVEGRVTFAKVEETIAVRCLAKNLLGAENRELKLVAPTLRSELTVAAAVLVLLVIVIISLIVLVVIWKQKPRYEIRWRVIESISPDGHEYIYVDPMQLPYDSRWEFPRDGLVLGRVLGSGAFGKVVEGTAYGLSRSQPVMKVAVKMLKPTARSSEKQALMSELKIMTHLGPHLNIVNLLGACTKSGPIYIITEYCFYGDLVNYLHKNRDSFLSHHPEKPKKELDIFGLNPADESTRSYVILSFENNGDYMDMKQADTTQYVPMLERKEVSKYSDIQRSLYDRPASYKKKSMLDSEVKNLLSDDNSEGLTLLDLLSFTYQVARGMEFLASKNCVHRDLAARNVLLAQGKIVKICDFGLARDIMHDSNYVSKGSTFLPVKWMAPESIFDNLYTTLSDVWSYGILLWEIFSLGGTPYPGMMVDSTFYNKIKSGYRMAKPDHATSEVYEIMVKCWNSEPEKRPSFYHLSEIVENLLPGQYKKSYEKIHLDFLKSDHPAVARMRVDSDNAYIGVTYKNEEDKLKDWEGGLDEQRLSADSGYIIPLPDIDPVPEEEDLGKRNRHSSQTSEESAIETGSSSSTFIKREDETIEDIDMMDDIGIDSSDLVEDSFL

[6] = target: T1, Testis-specific serine/threonine-protein kinase 2 (Homo sapiens) (UniProt Q96PF2); experiment: Selectivity interaction (Kinase panel (Z-LYTE Assay)) EUB0001632a TSSK2; details: at 10 µM
T1 sequence (whole entry): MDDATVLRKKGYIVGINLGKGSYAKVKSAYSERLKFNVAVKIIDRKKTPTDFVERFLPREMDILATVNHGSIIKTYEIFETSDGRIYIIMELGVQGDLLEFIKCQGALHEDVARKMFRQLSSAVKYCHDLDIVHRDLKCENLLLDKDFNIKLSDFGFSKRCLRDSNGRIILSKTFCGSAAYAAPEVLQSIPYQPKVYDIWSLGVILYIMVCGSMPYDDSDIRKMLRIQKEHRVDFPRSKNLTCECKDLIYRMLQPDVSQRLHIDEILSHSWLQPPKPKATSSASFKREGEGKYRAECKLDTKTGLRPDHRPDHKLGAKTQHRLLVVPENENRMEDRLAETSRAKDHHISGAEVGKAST

[7] = target: T2, Mitogen-activated protein kinase 12 (Homo sapiens) (UniProt P53778); details: at 10 µM
T2 sequence (whole entry): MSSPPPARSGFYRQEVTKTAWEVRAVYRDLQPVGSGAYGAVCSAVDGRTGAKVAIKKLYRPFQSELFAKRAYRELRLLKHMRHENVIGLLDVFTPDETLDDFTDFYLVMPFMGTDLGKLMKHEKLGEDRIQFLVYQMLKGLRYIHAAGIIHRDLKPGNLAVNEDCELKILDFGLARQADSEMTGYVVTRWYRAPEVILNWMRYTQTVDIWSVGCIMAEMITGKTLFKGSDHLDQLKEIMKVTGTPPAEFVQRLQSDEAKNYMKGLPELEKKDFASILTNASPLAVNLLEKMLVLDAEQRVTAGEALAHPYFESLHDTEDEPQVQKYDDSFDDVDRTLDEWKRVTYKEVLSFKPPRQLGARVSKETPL

[8] = target: T3, Inhibitor of nuclear factor kappa-B kinase subunit beta (Homo sapiens) (UniProt O14920); experiment: Selectivity interaction (KinomeScan (DiscoverX)) EUB0000618a IKBKB; details: at 10 µM
T3 sequence (whole entry): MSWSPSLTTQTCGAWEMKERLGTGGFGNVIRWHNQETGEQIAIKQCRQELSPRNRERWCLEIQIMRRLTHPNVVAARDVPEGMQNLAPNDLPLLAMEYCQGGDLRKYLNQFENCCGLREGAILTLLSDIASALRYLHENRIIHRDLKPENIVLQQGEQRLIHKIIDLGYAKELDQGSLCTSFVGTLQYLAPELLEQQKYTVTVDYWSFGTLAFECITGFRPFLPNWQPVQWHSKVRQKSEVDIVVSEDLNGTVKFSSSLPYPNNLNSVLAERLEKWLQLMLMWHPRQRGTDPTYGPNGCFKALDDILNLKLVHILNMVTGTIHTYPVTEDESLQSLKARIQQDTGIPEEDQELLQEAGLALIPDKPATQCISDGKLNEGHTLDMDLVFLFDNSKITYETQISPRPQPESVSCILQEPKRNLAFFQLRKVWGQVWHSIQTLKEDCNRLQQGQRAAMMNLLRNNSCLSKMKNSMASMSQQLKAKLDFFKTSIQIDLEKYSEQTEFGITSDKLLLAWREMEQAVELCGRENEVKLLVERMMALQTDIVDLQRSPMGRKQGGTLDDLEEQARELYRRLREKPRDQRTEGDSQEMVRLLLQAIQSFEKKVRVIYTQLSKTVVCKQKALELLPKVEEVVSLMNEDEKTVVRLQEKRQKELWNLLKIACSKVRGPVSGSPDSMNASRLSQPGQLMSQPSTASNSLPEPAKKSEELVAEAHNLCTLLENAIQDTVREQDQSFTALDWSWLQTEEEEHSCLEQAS

[9] = target: T4, Dual specificity mitogen-activated protein kinase kinase 6 (Homo sapiens) (UniProt P52564); experiment: Selectivity interaction (KinomeScan (DiscoverX)) EUB0000655a MAP2K6; details: at 10 µM
T4 sequence (whole entry): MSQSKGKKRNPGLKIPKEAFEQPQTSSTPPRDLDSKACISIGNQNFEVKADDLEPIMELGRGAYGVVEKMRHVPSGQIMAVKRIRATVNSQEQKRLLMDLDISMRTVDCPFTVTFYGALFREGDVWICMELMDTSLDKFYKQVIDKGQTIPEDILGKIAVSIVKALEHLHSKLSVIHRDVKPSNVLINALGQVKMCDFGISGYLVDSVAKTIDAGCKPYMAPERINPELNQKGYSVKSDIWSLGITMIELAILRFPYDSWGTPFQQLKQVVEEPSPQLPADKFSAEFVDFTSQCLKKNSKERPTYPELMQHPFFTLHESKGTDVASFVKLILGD

Sequence of Proto-oncogene tyrosine-protein kinase receptor Ret (Homo sapiens), P07949 [M918T] (P07949 whole entry M918T): as the sequence (P07949 whole entry V804M) above, with M804V, M918T counted along it
Sequence of Proto-oncogene tyrosine-protein kinase receptor Ret (Homo sapiens), P07949 [V804L] (P07949 whole entry V804L): as the sequence (P07949 whole entry V804M) above, with M804L counted along it

With COc1cc(N(C)c2ccnc3ccc(C(F)(F)F)cc23)cc(OC)c1OC the % binding [1] was 100%, the % binding [2] was 96% and the % binding [3] was 89%. It also gave a % binding [4] of 97%.

C=CC(=O)Nc1cc(-n2c(=O)ccc3cnc4ccc(-c5ccc(NS(C)(=O)=O)cc5)cc4c32)ccc1C showed a % of control ([5]; at 1 µM) of 92% and a % of control ([5]; at 10 µM) of 100%.

Cn1cc(-n2cnc3c(NCc4nc5cc(Cl)c(Cl)cc5[nH]4)nc(N4CCOCC4)nc32)cn1 showed a % of control [6] of -16.5%.

Work on Cc1cc([C@@H](C)Nc2ccccc2C(=O)O)c2nc(N3CCOCC3)cc(=O)n2c1 [AZD-6482] yielded a % of control [7] of 94%.

O[C@H]1CC[C@H](Nc2ncc3nc(Nc4c(F)cc(F)cc4F)n([C@H]4CCOC4)c3n2)CC1 showed a % of control [8] of 100%.

For CN(C)CCOc1ccc(-c2nc(-c3ccncc3)c(-c3ccc4c(c3)CC/C4=N\O)[nH]2)cc1, the % of control [9] was 100%.
